Tested on: green peach aphid (Myzus persicae)
Assay: Myzus test (spray treatment) on Chinese cabbage leaf disks
Format: in vivo
Conditions: foliar, 144 h, read-out: Mortality in % After 6 Days
Protocol: A suitable preparation of active ingredient was prepared by mixing one part by weight of active ingredient with the stated amounts of solvent and emulsifier and diluting the concentrate with emulsifier-containing water to the desired concentration as described below. A suitable suspension of biological agent was prepared by dissolving the cells, spores or viruses in emulsifier-containing water at the desired concentration.
Chinese cabbage (Brassica pekinensis) leaf disks infested by all stages of the green peach aphid (Myzus persicae) were sprayed with an active ingredient and/or biological agent preparation in the desired concentration.
After the desired time, the effect in % was ascertained. Here, 100% means that all of the aphids had been killed; 0% means that no aphids had been killed. The mortality figures determined are used for calculation according to the Colby formula (cf. Colby, S. R., “Calculating Synergistic and Antagonistic Responses of Herbicide Combinations”, Weeds 1967, 15, 20-22).

`O=C(NCCc1ncc(C(F)(F)F)cc1Cl)c1ccccc1C(F)(F)F` [Fluopyram, fluopyram] showed a mortality at 500 g/ha (500 g ai/ha) of 0% and a mortality at 1000 g/ha (1000 g ai/ha) of 0%.

Reference: US20180064110A1, “COMBINATIONS OF FUNGICIDALLY ACTIVE YEAST AND FUNGICIDES” (Bayer CropScience AG, priority 2009, published 2018)
